Results from US20240172744A1, “H[…] SOLUTION FOR REPAIRING KIDNEY INJURY AND USE THEREOF” (WUHAN UNIVERSITY, priority 2022, published 2024).

Key:
[1] = system: kidney from a donation after circulatory death donor of a rat; experiment: hypothermic oxygenated perfusion of rat donation-after-circulatory-death kidney ex-vivo, perfusion parameters (intrarenal resistance); settings: Examples 1-4: 200, 400, 600, 800 μM in KPS-1 solution, warm ischemia 30, 45, 60, 90 min, 0-4 °C, 30 mmHg, 2 h perfusion, FIGS. 2A-2D
Method: The method for performing hypothermic oxygenated perfusion on a kidney from a donation after circulatory death donor of a rat by using the perfusion fluid according to the examples of the present invention specifically includes the following steps: for a donor organ donated after a cardiac death, in the kidney acquisition process, performing in-situ organ lavage by using heparin sodium saline with a temperature of 4° C. to effectively remove thrombus in large blood vessels and to relieve the obstacle of the thrombus to the delivery of carbon monoxide released by carbon monoxide-releasing molecules to the kidney, combining ex-vivo hypothermic oxygenated perfusion with the carbon monoxide released by the carbon monoxide-releasing molecules to specifically achieve the vasodilation, the removal of microthrombus and the recovery of the patency of the microcirculation, and evaluating the function and quality of the kidney through perfusion parameters (perfusion flow and intrarenal resistance) and a macroscopic kidney state, wherein the perfusion parameters can reflect the kidney function to a certain degree; a kidney with a good function can be subjected to allogeneic kidney transplantation and a kidney with a poor function will be discarded. […]

[2] = system: kidney from a donation after circulatory death donor of a rat; experiment: H&E pathological examination of renal tissues after 2 h of kidney perfusion; settings: Examples 1-4: 200, 400, 600, 800 μM in KPS-1 solution; warm ischemia 30, 45, 60, 90 min; after 2 h perfusion; FIGS. 3A-3D
Method: After 2 h of kidney perfusion according to the methods of Examples 1-4, 1 cm^3 of renal tissues were taken out and fixed in neutral formaldehyde for storage, and then dehydrated, embedded in paraffin, sectioned and then stained by H&E, and finally photographed under a microscope to observe morphological changes and pathological analysis of tissues.

carbon monoxide-releasing molecules-401
intrarenal resistance during hypothermic oxygenated perfusion ([1]; listed as carbon monoxide-releasing molecule): continuously decrease
intrarenal resistance during hypothermic oxygenated perfusion ([1]; listed as carbon monoxide-releasing molecules): significantly reduced and maintained to be stable
pathological examination of renal tissues (glomeruli, renal tubules, renal interstitium; H&E) [2]: no obvious abnormality found
